# Source: patent US20220117945A1, “ISOXAZOLE CARBOXAMIDE COMPOUNDS AND USES THEREOF” (NOVARTIS AG, priority 2017, published 2022)
# System: Atoh1 expression in mouse cerebellar neural precursor cells
# Assay: Atoh1 induction assay in mouse cerebellar neural precursor cells (NPCs), Atoh1-GFP reporter
# Type: cell-based
# Conditions: 10 doses 50 μM to 200 nM, 72 hours treatment, DMSO control = 1, more than 5 considered significant, read-out: fold difference (maximum fold difference of GFP average intensity in cell nuclei over the DMSO control)
# Description: Compounds of the present disclosure were assessed for their ability to increase the Atoh1 expression in mouse cerebellar neural precursor cells. The ability of compounds of the present disclosure to induce new hair cell formation was assessed in ex vivo hair cell induction assay using 6-day-postnatal mouse cochlea explants with hair cell damage.
# Atoh1 Induction Assay in Mouse Cerebellar Neural Precursor Cells (NPCs)
# Atoh1 induction assay was conducted with in vitro cultured cerebellar neural precursor cells isolated from neonatal transgenic Atoh1-GFP mice. Atoh1 expression is mainly regulated by the enhancer, and the nuclear GFP was driven by the cloned enhancer sequence at 3′ of Atoh1 which had high conservation among mammalians. So Atoh1 induction could be reflected by GFP activation in cerebellar neural precursor cells (Helms et al., Development 2000; 127: 1185-1196; Lumpkin et al., Gene Expression Patterns 2003; 3: 389-395). Postnatal 3 days pups were dissected for cerebellum tissue isolation. The cerebellum tissue was cut into small pieces, and dissociated with 0.05% Trypsin for about 10 minutes at 37° C., and then filtered with a 70 uM cell strainer. The cells were cultured as neuropsheres for the first 2 days in ultra-low attachment dish/well-plate with DMEM/F12+1% N2 &2% B27 with 1% P/S, 20 ng/ml rhFGF2 and 20 ng/ml rhEGF (R&D Systems). Then the spheres were plated to the matrigel (1:30 diluted in DMEM/F12)-coated tissue culture dish for monolayer culture. After 4.5-5.5 days culture in vitro (DIV), cells were dissociated with 0.05% trypsin into single cells, and frozen after cell number calculation.
# The cerebellar neural precursor cells (NPCs) were re-thawed from stock and cultured for another 2 days before used for Atoh1 induction assay. On the first day of assay, NPCs were seeded into matrigel-coated 384 well plates (Black view-plate, PE) at 2500 cells/well. After over-night culture, the NPCs were treated with representative compounds of the present disclosure with 1:2 serial dilutions for 10 doses, from 50 μM to 200 nM, with DMSO as negative control. After 72 hours treatment without medium change, the cells were fixed with 4% formalin for staining. Assay plates were stained with GFP antibody (Abcam, #13970, 1:1000) to amplify endogenous GFP signal and then read by Cellomics.
row,Structure (SMILES),maximal fold induction
1,"CC(=O)C1CN(CCCCCNC(=O)c2cc(-c3cccs3)on2)C1 [Example 93, N-(5-(3-Acetylazetidin-1-yl)pentyl)-5-(thiophen-2-yl)isoxazole-3-carboxamide]",12.4
2,COC1CN(CCCCCNC(=O)c2cc(-c3ccc(F)cc3)on2)C1 [Example 68],22.3
3,"O=C(NCCCCCN1CC(C(=O)N[C@H]2CCC[C@@H]2O)C1)c1cc(-c2ccc(F)cc2)on1 [Example 91, 5-(4-Fluorophenyl)-N-(5-(3-(((1S,2S)-2-hydroxycyclopentyl)carbamoyl)azetidin-1-yl)pentyl)isoxazole-3-carboxamide]",34.5
4,"O=C(NCCCCCN1CC(C(=O)NCCO)C1)c1cc(-c2cccs2)on1 [Example 78, N-(5-(3-((2-Hydroxyethyl)carbamoyl)azetidin-1-yl)pentyl)-5-(thiophen-2-yl)isoxazole-3-carboxamide]",23.1
5,O=C(NCCCCCN1CC2(COC2)C1)c1cc(-c2ccc(F)cc2)on1 [Example 69],33.5
6,"COC(=O)N1CCN(CCCCCNC(=O)c2cc(-c3cccs3)on2)CC1 [Example 24, Methyl 4-(5-(5-(thiophen-2-yl)isoxazole-3-carboxamido)pentyl)piperazine-1-carboxylate]",24
7,O=C(NCCCCCN1CCC(O)CC1)c1cc(-c2cccs2)on1 [Example 39],20.5
8,CN1C[C@H]2C[C@@H]1CN2CCCCCNC(=O)c1cc(-c2cccs2)on1 [Example 60],18.7
9,CN1CCN(CCCCCNC(=O)c2cc(-c3cccs3)on2)CC1=O [Example 38],34.3
10,"NC(=O)C1CN(CCC(F)(F)CCNC(=O)c2cc(-c3cccs3)on2)C1 [Example 75, N-(5-(3-Carbamoylazetidin-1-yl)-3,3-difluoropentyl)-5-(thiophen-2-yl)isoxazole-3-carboxamide]",20.6
11,"O=C(NCCCCCN1CC(C(=O)NCCCO)C1)c1cc(-c2cccs2)on1 [Example 81, N-(5-(3-((3-Hydroxypropyl)carbamoyl)azetidin-1-yl)pentyl)-5-(thiophen-2-yl)isoxazole-3-carboxamide]",33
12,"CNC(=O)NC1CN(CCCCCNC(=O)c2cc(-c3ccc(F)cc3)on2)C1 [Example 23, 5-(4-Fluorophenyl)-N-(5-(3-(3-methylureido)azetidin-1-yl)pentyl)isoxazole-3-carboxamide]",25.7
13,N#CC1CN(CCCCCNC(=O)c2cc(-c3cccs3)on2)C1 [Example 35],29.7
14,O=C(NCCCCCN1CCN2CCCC2C1)c1cc(-c2cccs2)on1 (stereo not shown) [Example 41],21.9
15,"CC(C)C[C@H]1CN(CCCCCNC(=O)c2cc(-c3cccs3)on2)CCN1 [Example 6, (S)—N-(5-(3-isobutylpiperazin-1-yl)pentyl)-5-(thiophen-2-yl)isoxazole-3-carboxamide]",9
16,"O=C(NCCCCCN1CC(C(=O)N[C@H]2C[C@@H](O)C2)C1)c1cc(-c2cccs2)on1 [Example 79, N-(5-(3-(((1,3-cis)-3-Hydroxycyclobutyl)carbamoyl)azetidin-1-yl)pentyl)-5-(thiophen-2-yl)isoxazole-3-carboxamide]",26.6
17,"CN1CC2CCC(C1)N2CCCCCNC(=O)c1cc(-c2cccs2)on1 [Example 13, N-(5-(3-Methyl-3,8-diazabicyclo[3.2.1]octan-8-yl)pentyl)-5-(thiophen-2-yl)isoxazole-3-carboxamide]",23
18,"CNC(=O)NC1CN(CCCCCNC(=O)c2cc(-c3cccs3)on2)C1 [Example 18, N-(5-(3-(3-Methylureido)azetidin-1-yl)pentyl)-5-(thiophen-2-yl)isoxazole-3-carboxamide]",17.6
19,"O=C(NCCCCCN1CCNC(c2ccccc2)C1)c1cc(-c2cccs2)on1 (stereo not shown) [Example 1, N-(5-(3-Phenylpiperazin-1-yl)pentyl)-5-(thiophen-2-yl)isoxazole-3-carboxamide]",22.4
20,"CC(=O)NC1CN(CCCCCNC(=O)c2cc(-c3cccs3)on2)C1 [Example 16, N-(5-(3-Acetamidoazetidin-1-yl)pentyl)-5-(thiophen-2-yl)isoxazole-3-carboxamide]",25.3

row,Structure (SMILES),maximal fold induction
1,"O=C(NCCCCCN1CCn2cncc2C1)c1cc(-c2cccs2)on1 [Example 94, N-(5-(5,6-dihydroimidazo[1,5-a]pyrazin-7(8H)-yl)pentyl)-5-(thiophen-2-yl)isoxazole-3-carboxamide]",20.6
2,"CNC(=O)N1CCN(CCCCCNC(=O)c2cc(-c3cccs3)on2)CC1 [Example 25, N-(5-(4-(Methylcarbamoyl)piperazin-1-yl)pentyl)-5-(thiophen-2-yl)isoxazole-3-carboxamide]",10.1
3,"N#CCNC(=O)C1CN(CCCCCNC(=O)c2cc(-c3ccc(F)cc3)on2)C1 [Example 88, N-(5-(3-((Cyanomethyl)carbamoyl)azetidin-1-yl)pentyl)-5-(4-fluorophenyl)isoxazole-3-carboxamide]",9.3
4,"O=C(NCCCCCN1CCCC1)c1cc(-c2cccs2)on1 [Example 7, N-(5-(Pyrrolidin-1-yl)pentyl)-5-(thiophen-2-yl)isoxazole-3-carboxamide]",31
5,O=C(NCCCCCN1CC(c2ncc[nH]2)C1)c1cc(-c2ccc(F)cc2)on1 [Example 71],26.8
6,"NC(=O)C1CN(CCC(F)(F)CCNC(=O)c2cc(-c3ccc(F)cc3)on2)C1 [Example 76, N-(5-(3-Carbamoylazetidin-1-yl)-3,3-difluoropentyl)-5-(4-fluorophenyl)isoxazole-3-carboxamide]",20.4
7,O=C(NCCCCCN1CCCC(F)C1)c1cc(-c2cccs2)on1 (stereo not shown) [Example 50],23.4
8,O=C(NCCCCCN1CC(F)(F)C1)c1cc(-c2cccs2)on1 [Example 58],10
9,O=C(NCCCCCN1CC2(COC2)C1)c1cc(-c2cccs2)on1 [Example 34],20.8
10,"CCNC(=O)C1CN(CCCCCNC(=O)c2cc(-c3ccc(F)cc3)on2)C1 [Example 86, N-(5-(3-(Ethylcarbamoyl)azetidin-1-yl)pentyl)-5-(4-fluorophenyl)isoxazole-3-carboxamide]",36.7
11,"O=C(NCCCCCN1CC(C(=O)N[C@H]2C[C@H](O)C2)C1)c1cc(-c2ccc(F)cc2)on1 [Example 89, 5-(4-Fluorophenyl)-N-(5-(3-(((1,3-trans)-3-hydroxycyclobutyl)carbamoyl)azetidin-1-yl)pentyl)isoxazole-3-carboxamide]",11
12,"O=C(NCCCCCN1CC(C(=O)NCCO)C1)c1cc(-c2ccc(F)cc2)on1 [Example 90, 5-(4-Fluorophenyl)-N-(5-(3-((2-hydroxyethyl)carbamoyl)azetidin-1-yl)pentyl)isoxazole-3-carboxamide]",19.1
13,"O=C(NCCCCCN1CC2CC1CN2)c1cc(-c2cccs2)on1 (stereo not shown) [Example 4, N-(5-(2,5-Diazabicyclo[2.2.1]heptan-2-yl)pentyl)-5-(thiophen-2-yl)isoxazole-3-carboxamide]",30.7
14,O=C(NCCCCCN1CCC(F)(F)CC1)c1cc(-c2cccs2)on1 [Example 31],16
15,"O=C(NCCCCCN1CC(C(=O)NC2CCC(O)C2)C1)c1cc(-c2cccs2)on1 (stereo not shown) [Example 82, N-(5-(3-((3-Hydroxycyclopentyl)carbamoyl)azetidin-1-yl)pentyl)-5-(thiophen-2-yl)isoxazole-3-carboxamide]",31.9
16,"O=C(NCCCCCN1CC(c2ncc[nH]2)C1)c1cc(-c2cccs2)on1 [Example 95, N-(5-(3-(1H-imidazol-2-yl)azetidin-1-yl)pentyl)-5-(thiophen-2-yl)isoxazole-3-carboxamide]",21.8
17,"CNC(=O)C1CN(CCCCCNC(=O)c2cc(-c3cccs3)on2)C1 [Example 61, N-(5-(3-(methylcarbamoyl)azetidin-1-yl)pentyl)-5-(thiophen-2-yl)isoxazole-3-carboxamide]",33.7
18,"CC(C)(C)OC(=O)N1CCN(CCCCCNC(=O)c2cc(-c3cccs3)on2)CC1 [Example 2, tert-Butyl 4-(5-(5-(thiophen-2-yl)isoxazole-3-carboxamido)pentyl)piperazine-1-carboxylate]",35.4
19,"CS(=O)(=O)NC1CN(CCCCCNC(=O)c2cc(-c3cccs3)on2)C1 [Example 19, N-(5-(3-(Methylsulfonamido)azetidin-1-yl)pentyl)-5-(thiophen-2-yl)isoxazole-3-carboxamide]",31.7
20,O=C(NCCCCCN1CCC(F)C1)c1cc(-c2cccs2)on1 (stereo not shown) [Example 32],26.8
